# Source: the PolyMetriX glass transition set
# ± gives the standard deviation of the reports.
row,SMILES,glass transition temperature
1,*/C(C#N)=C/c1cc(OCCCCCCCCCCCCCCCC)c(/C=C(\C#N)c2cc(OCCCCCCCCCCCCCCCC)c(*)cc2OC)cc1OC (repeat unit),190.00 °C
2,*Oc1ccc(CC(NC(=O)CCc2ccc(OC(=O)COCCOCC(*)=O)cc2)C(=O)OCc2ccccc2)cc1 (repeat unit),55.00 °C
3,*c1ccc(Oc2ccc(C(=O)c3cccc(C(=O)c4ccc(Oc5ccc(N6C(=O)c7ccc(Oc8ccc(Oc9ccc(Oc%10ccc%11c(c%10)C(=O)N(*)C%11=O)cc9)cc8)cc7C6=O)cc5)cc4)c3)cc2)cc1 (repeat unit),192.00 °C
4,*c1ccc(Oc2ccc(C(c3ccc(Oc4ccc(-c5nnc(*)n5-c5ccccc5)cc4)cc3)(C(F)(F)F)C(F)(F)F)cc2)cc1 (repeat unit),203.00 °C
5,*CC(O)COc1c(C)cc(C(C)(C)c2cc(C)c(O*)c(C)c2)cc1C (repeat unit),130.00 °C
6,*Oc1ccc(SC(=O)Oc2ccc(C(C)(C)c3ccc(OC(=O)Sc4ccc(*)cc4)cc3)cc2)cc1 (repeat unit),145.00 °C
7,*Nc1ccc(C2(c3ccc(NC(=O)c4cccc(C(*)=O)c4)cc3)c3ccccc3-c3ccccc32)cc1 (repeat unit),277.00 °C
8,*CC(CO*)(CS(=O)(=O)CC)CS(=O)(=O)CC (repeat unit),84.00 °C
9,*C(=O)c1cc(C(=O)c2ccc3c(c2)C(=O)N(c2ccc(Oc4ccc(N5C(=O)c6ccc(*)cc6C5=O)cc4)cc2)C3=O)cc(-c2ccccc2)c1 (repeat unit),258.50 °C
10,*CCCCCCCCCCCCOc1c(OC)cc(/C=C/c2ccc(/C=C/c3cc(OC)c(O*)c(OC)c3)cc2)cc1OC (repeat unit),61.10 °C
11,*Nc1ccc(-c2ccc(NC(=O)c3cccc(C(*)=O)c3)c(S)c2)cc1S (repeat unit),395.00 °C
12,*C[Si](*)(C)C (repeat unit),-90.00 °C
13,*Oc1ccc(NC(=O)c2cc(NC(=O)c3ccncc3)cc(C(=O)Nc3ccc(*)cc3)c2)cc1 (repeat unit),305.00 °C
14,*c1ccc(-c2ccc(-c3ccc(-c4ccc([Si](CCCC)(CCCC)[Si](*)(CCCC)CCCC)s4)s3)s2)s1 (repeat unit),-1.00 °C
15,*CCCCCCCCCCCCC(=O)O* (repeat unit),-36.00 °C
16,*C(=O)Oc1ccc2ccc(OC(=O)c3ccc4c(c3)C(=O)N(c3ccc(Oc5ccc(N6C(=O)c7ccc(*)cc7C6=O)cc5)cc3)C4=O)cc2c1 (repeat unit),246.00 °C
17,*C(=O)c1ccc(Oc2ccc(-c3ccc(Oc4ccc(C(=O)c5ccc6c(c5)C(=O)N(c5ccc(Cc7ccc(N8C(=O)c9ccc(*)cc9C8=O)cc7)cc5)C6=O)cc4)cc3)cc2)cc1 (repeat unit),241.00 °C
18,*OC1CCC(OC(=O)c2ccc(C(*)=O)cc2)CC1 (repeat unit),94.30 °C
19,*CC(*)(C)C(=O)OCc1c(F)cccc1F (repeat unit),82.00 °C
20,*CC(*)c1ccc(COc2ccc(-c3ccc(C#N)cc3)cc2)cc1 (repeat unit),132.00 °C

row,SMILES,glass transition temperature
1,*CCCCOc1cccc(C(=O)OC(=O)c2cccc(O*)c2)c1 (repeat unit),20.00 °C
2,*Oc1ccc(C2(c3ccc(Oc4ccc(C(=O)c5cccc(C(=O)c6ccc(*)cc6)c5)cc4)cc3)CCC3CCCCC3C2)cc1 (repeat unit),194.00 °C
3,*Oc1ccc(C(=O)OCCOCCOCCOC(=O)c2ccc(OC(=O)c3ccc(C(*)=O)cc3)cc2)cc1 (repeat unit),30.00 °C
4,*Nc1ccc(NC(=O)CCCCCC(*)=O)cc1 (repeat unit),133.00 °C
5,*CC#CC#CCOc1ccc(C(=O)OCCN(CCOC(=O)c2ccc(O*)cc2)c2ccc(/N=N/c3ccc([N+](=O)[O-])cc3)cc2)cc1 (repeat unit),100.00 °C
6,*CCCS(=O)(=O)CCCCS(=O)(=O)CCCOC(=O)c1ccccc1C(=O)O* (repeat unit),49.00 °C
7,*c1ccc2c(c1)C(=O)N(c1ccc(Oc3ccc(C(=O)c4cccc(C(=O)c5ccc(Oc6ccc(N7C(=O)c8ccc(C(*)(C(F)(F)F)C(F)(F)F)cc8C7=O)cc6)cc5)c4)cc3)cc1)C2=O (repeat unit),236.00 °C
8,*Oc1cccc(NC(=O)c2cccc(C(=O)Nc3ccc(*)cc3)c2)c1 (repeat unit),240.00 °C
9,*CCCCCCCOc1ccc(CCc2ccc(O*)cc2C)cc1 (repeat unit),6.50 °C
10,*Oc1ccc(Oc2ccc(/C(=N\c3ccccc3)c3ccc(Oc4ccc(Oc5cccc(*)n5)cc4)cc3)cc2)cc1 (repeat unit),135.00 °C
11,*Oc1cccc(NC(=O)c2cc(C(=O)Nc3ccc(*)cc3)cc(C(F)(F)C(F)(F)C(F)(F)C(F)(F)F)c2)c1 (repeat unit),230.00 °C
12,*c1cccc(-c2cc(C(=O)Nc3ccc(OC(=O)c4cc(OCCCCCCCCCCCC)c(OCCCCCCCCCCCC)c(OCCCCCCCCCCCC)c4)cc3)cc(-c3cccc(N4C(=O)c5ccc(S(=O)(=O)c6ccc7c(c6)C(=O)N(*)C7=O)cc5C4=O)c3)c2)c1 (repeat unit),268.00 °C
13,*c1ccc(Oc2ccc(C(c3ccc(Oc4ccc(N5C(=O)CC(=O)N(*)C5=S)cc4)cc3)(C(F)(F)F)C(F)(F)F)cc2)cc1 (repeat unit),147.00 °C
14,*c1ccc(Oc2ccc(-c3ccc(Oc4ccc(N5C(=O)c6ccc(Oc7ccccc7Oc7ccc8c(c7)C(=O)N(*)C8=O)cc6C5=O)cc4)cc3)cc2)cc1 (repeat unit),204.00 °C
15,*c1ccc(Oc2ccc(N3C(=O)c4ccc(Oc5ccc6cc(Oc7ccc8c(c7)C(=O)N(*)C8=O)ccc6c5)cc4C3=O)cc2)cc1 (repeat unit),249.00 °C
16,*c1ccc(-c2cc(-c3ccc(-c4ccccc4)cc3)cc(-c3ccc(N4C(=O)c5ccc(NC(=O)Nc6ccc(Oc7ccc(NC(=O)Nc8ccc9c(c8)C(=O)N(*)C9=O)cc7)cc6)cc5C4=O)cc3)n2)cc1 (repeat unit),241.00 °C
17,*c1cc(C(c2ccc(OCc3cc(OCCN(C)c4ccc(/C=C/C5=CC(=C(C#N)C#N)CC(C)(C)C5)cc4)cc(OCCN(C)c4ccc(/C=C/C5=CC(=C(C#N)C#N)CC(C)(C)C5)cc4)c3)c(N3C(=O)c4ccc(Oc5ccc6c(c5)C(=O)N(*)C6=O)cc4C3=O)c2)(C(F)(F)F)C(F)(F)F)ccc1OCc1cc(OCCN(C)c2ccc(/C=C/C3=CC(=C(C#N)C#N)CC(C)(C)C3)cc2)cc(OCCN(C)c2ccc(/C=C/C3=CC(=C(C#N)C#N)CC(C)(C)C3)cc2)c1 (repeat unit),178.00 °C
18,*Oc1ccc(C(C)(c2ccccc2)c2ccc(Oc3c(F)c(F)c(C(=O)c4c(F)c(F)c(*)c(F)c4F)c(F)c3F)cc2)cc1 (repeat unit),175.00 °C
19,*c1ccc(Sc2ccc(Sc3ccc(Sc4ccc(N5C(=O)c6ccc(-c7cccc8c7C(=O)N(*)C8=O)cc6C5=O)cc4)cc3)cc2)cc1 (repeat unit),226.70 °C
20,*CCOC(=O)Nc1ccc(C)c(NC(=O)OCCOc2cc([N+](=O)[O-])ccc2/N=N/c2cn(*)c3ccc(-c4ccc5c(c4)c4ccccc4n5CCCC)cc23)c1 (repeat unit),160.00 °C

row,SMILES,glass transition temperature
1,*c1ccc2c(c1)C(=O)N(c1ccc(Oc3ccccc3Oc3ccc(N4C(=O)c5ccc(C(*)(C(F)(F)F)C(F)(F)F)cc5C4=O)cc3C(F)(F)F)c(C(F)(F)F)c1)C2=O (repeat unit),247.00 °C
2,*CC(*)(C)CCC (repeat unit),27.00 °C
3,*CC(*)(CC(=O)Oc1ccc(OCC)cc1)C(=O)Oc1ccc(OCC)cc1 (repeat unit),110.50 °C
4,*c1ccc(Oc2ccc(Oc3ccc(Oc4ccc(N5C(=O)C6CCC(C7CCC8C(=O)N(*)C(=O)C8C7)CC6C5=O)cc4)cc3)cc2)cc1 (repeat unit),217.00 °C
5,*c1ccc(Oc2ccc(C(=O)c3ccc4cc(C(=O)c5ccc(Oc6ccc(-c7nc(-c8ccccc8)[nH]c7*)cc6)cc5)ccc4c3)cc2)cc1 (repeat unit),248.00 °C
6,*Oc1ccc(NC(=O)c2ccc(Oc3ccc(C(C)(C)c4cccc(C(C)(C)c5ccc(Oc6ccc(C(=O)Nc7ccc(Oc8ccc(C(c9ccc(*)cc9)(C(F)(F)F)C(F)(F)F)cc8)cc7)cc6)cc5)c4)cc3)cc2)cc1 (repeat unit),154.00 °C
7,*C(=O)NNC(=O)c1ccc([Si](c2ccccc2)(c2ccccc2)c2ccc(C(=O)NNC(=O)c3ccc(*)nc3)cc2)cc1 (repeat unit),240.00 °C
8,*C(=O)c1ccc2c(c1)C(=O)N(c1ccc(Oc3ccc(C(=O)c4ccc(Oc5ccc(C(=O)c6ccc(Oc7ccc(N8C(=O)c9ccc(*)cc9C8=O)cc7)cc6)cc5)cc4)cc3)cc1)C2=O (repeat unit),215.00 °C
9,*Oc1ccc(OC(=O)c2ccc(C(*)=O)cc2)cc1C1CC2CCC1C2 (repeat unit),267.00 °C
10,*c1ccc(-c2nc3cc4nc(*)c(-c5ccccc5)nc4cc3nc2-c2ccccc2)cc1 (repeat unit),395.00 °C
11,*NNC(=O)c1ccccc1C(=O)Nc1cccc(/C=C2\CC/C(=C\c3cccc(NC(=O)c4ccccc4C(*)=O)c3)C2=O)c1 (repeat unit),202.10 °C
12,*c1ccc(-c2ccc([Si](C)(C)[Si](*)(C)C)s2)s1 (repeat unit),45.00 °C
13,*CCOC(=O)c1ccc(C(=O)O*)cc1 (repeat unit) [Poly(ethylene terephthalate)],75 ± 3.5 °C
14,*Nc1ccc(NC(=O)c2ccc(NC(=O)CCCCCCCCCCC(=O)Nc3ccc(C(*)=O)cc3)cc2)cc1C(=O)OCCCCCCCCCCCCCC (repeat unit),199.50 °C
15,*OC(F)(F)COC(=O)c1cccc(C(F)(F)C(F)(F)C(F)(F)c2cccc(C(=O)OCC(*)(F)F)c2)c1 (repeat unit),30.00 °C
16,*Oc1ccc(C(=O)OCCCCCOC(=O)c2ccc(*)cc2)cc1 (repeat unit),26.00 °C
17,*c1ccc([Si](c2ccccc2)(c2ccccc2)c2ccc(-c3nnc(-c4ccc(-c5nnc(*)o5)o4)o3)cc2)cc1 (repeat unit),276.00 °C
18,*CCOCCOCCOC(=O)C1CCC(C(=O)O*)CC1 (repeat unit),-25.00 °C
